Measurements as given in patent publication US7598028B2, “Compositions and methods for detecting and treating prostate disorders” (The Regents of the University of Michigan, priority 2006, dated 2009).
“Also recorded” adds a separate entry of the source.

Key:
Format in all cases: cell-based, human
EGR1 gene transcript = assay: Quantitative real-time PCR, EGR1 in N15C6 cells
Protocol: Quantitative Real-Time PCR. All quantitative real-time assays were conducted with an Applied Biosystems 7900HT instrument and reagents. Cells were grown to 70% confluence in […] dishes prior to RNA purification using the Trizol reagent (Invitrogen Life Technologies). Experiments utilizing U0126 were performed as above, except that cells were treated with DMSO (vehicle) or 5 uM U0126 for 2 hours, then grown in the presence or absence of CXCL12. For all experiments, one microgram of RNA was reverse transcribed by use of Superscript III reverse transcriptase (Invitrogen, Carlsbad, Calif.). The resulting cDNA was diluted 1:100. Real-time PCR was performed by use of Assays on Demand (Applied BioSystems, Foster City, Calif.) according to the manufacturer's instructions, except that Real Time Ready with Rox passive dye (QBioGene, Carlsbad, Calif.) was used in place of TaqMan Universal PCR Master Mix. […] Cycle numbers to threshold were calculated by subtracting averaged control from averaged experimental values, and Fold Gene Expression was calculated by raising […]. […]
Quantitative Real-Time PCR. All quantitative real-time assays were conducted as previously described with an Applied Biosystems 7900HT instrument and reagents (see, e.g., Begley L A, et al., J Biol. Chem. 2007 Sep. 14; 282(37):26767-74; herein incorporated by reference in its entirety). […]

p65 subunit of NFkappaB = assay: Western blot, p65 phosphorylation in LNCaP cells
Protocol: (§1) Western Blot and Protein Analysis. Cells were lysed, proteins resolved by electrophoresis, and electroblotting was carried out as described previously except that 20 ug protein was electrophoresed per gel lane for N15C6 cells and 100 ug protein for LNCaP cells (see, e.g., Begley L, et al., Aging Cell. 2005 December; 4(6):291-8; Begley L A, et al., J Biol. Chem. 2007 Sep. 14; 282(37):26767-74; each herein incorporated by reference in their entireties). Proteins were detected using antibodies against phospho-ERK½ (Cell Signaling #9101), total ERK½ (Cell Signaling, #9102), phospho-p65, (Rockland #100-401-264), total p65 (Rockland #100-4165), STAT3 (9139), phospho-STAT3 (9138), beta-actin (Santa Cruz #sc-1615), or tubulin (Upstate, #DM1A) in conjunction with an ECL detection system. Secondary antibodies included goat anti-rabbit (Cell Signaling, #7074) and goat anti-mouse (Santa Cruz, #SC-2005), and both were used at a 1:5000 concentration. Immunoblots shown are representative of triplicate experiments. Densitometric quantitation of immunoblot films was accomplished by scanning the original films and converting the .tiff files to grayscale. Images were inverted, and mean band intensities were measured using ImageJ (www, followed by, .nih.gov). The mean intensity of adjacent background was also measured for each band and subtracted from band intensity.

[1] = test system: 22Rv1 prostate epithelial cells; assay: Proliferation assay, 22Rv1; conditions: 0.001-1 nM CXCL5, p<0.05
Protocol: (§2) Proliferation Assays. Cellular proliferation was assessed after plating cells at 50,000 cell/well in triplicate in six well plates and counting cells after 24 and 96 hours of incubation as described previously (see, e.g., Begley L, et al., Genes Chromosomes Cancer. 2006 February; 45(2): 136-46; herein incorporated by reference in its entirety). To assess the effects of exogenous CXCL5 on cellular proliferation, recombinant human CXCL5 (R&D Systems, 254-X) was added at the desired concentration in 2 ml SF media (or 2 ml SF media alone for control) to each well. The cells were re-fed at 24 hours growth and counted at 24 and 96 hours growth. Cell counts were normalized to 50,000 cells at 24 hours to account for any plating discrepancies. Averages and standard deviations of cell number were calculated for each time point under each media condition. For the antibody blockade experiments, 10,000 cells per well were plated in triplicate in 24 well dishes and preincubated with mouse anti-human CXCR2 (Biosource AHR1532X) or mouse antihuman CXCR4 (BD Pharmingen 555971) at 1 ug/ml for 1 hour prior to CXCL5 addition. Cells were maintained in media containing appropriate antibodies for the entirety of the experiment and were counted at 24 and 96 hours as above.

STAT3 = assay: Western blot, STAT3 phosphorylation in N15C6 cells; conditions: 10 pM, 100 pM or 1 nM CXCL5
Protocol: as §1

[2] = test system: BPH-1 prostate epithelial cells; assay: Proliferation assay, BPH-1; conditions: 0.001-1 nM CXCL5, p<0.05
Protocol: as §2

Row | Compound | effect on CXCL12-stimulated EGR1 gene transcription (EGR1 gene transcript; 5 uM U0126 for 2 hours, then 10 pM CXCL12) | EGR1 transcript versus vehicle-treated cells (EGR1 gene transcript; 1-100 pM CXCL5) | phosphorylation of the p65 subunit of NFkappaB (p65 subunit of NFkappaB; 10 pM or 100 pM CXCL5) | activation of NFkappaB (p65 subunit of NFkappaB; nanomolar levels of CXCL5) | proliferation versus SF media alone [1] | STAT3 phosphorylation (STAT3) | proliferation versus SF media alone [2]
1 | N#CC(=C(/N)Sc1ccccc1N)/C(C#N)=C(\N)Sc1ccccc1N [U0126] | ablated; also recorded: further dampens |  |  |  |  |  | 
2 | CXCL5: recombinant human CXCL5 (R&D Systems, 254-X), CXC-type chemokine |  | 4- to 8 fold | rapidly and transiently phosphorylated | not evident | significantly higher | rapidly and transiently phosphorylated | significantly higher
